Experiments:
Assay in all cases: post-emergence herbicidal activity, greenhouse
Type in all cases: in vivo
Morningglory = tested on: Morningglory
Method in brief: (§1)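 Two- to three-week-old greenhouse plants, raised in soil pans, received a foliar atomizer spray containing roughly 0.4% w/w emulsifier mix. Visual injury versus unsprayed checks was recorded at about 2 and 4 weeks after treatment (WAT).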

Panicum Spp = conditions: Table III
Method in brief: as §1

Quackgrass = conditions: Table II
Method in brief: (§2)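 Plants grown from seed or vegetative propagules in topsoil pans on a greenhouse sand bench, watered from below, were atomizer-sprayed at two to three weeks of age. The spray carried about 0.4% by weight emulsifier. Injury relative to unsprayed control pans was scored approximately two and four weeks after treatment.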

Sugar Beet = conditions: Table III
Method in brief: as §1

Wild Buckwheat = conditions: Table III
Method in brief: as §1

Yellow Nutsedge = conditions: Table II
Method in brief: as §2

[1] = 2 WAT, 1.1 kg/h, formulated in anhydrous tetrahydrofuran
[2] = 2 WAT, 5.6 kg/h, formulated in anhydrous tetrahydrofuran
[3] = 2 WAT, .28 kg/h, formulated in anhydrous tetrahydrofuran
[4] = 4 WAT, 1.1 kg/h, formulated in anhydrous tetrahydrofuran
[5] = 4 WAT, 5.6 kg/h, formulated in anhydrous tetrahydrofuran
[6] = 4 WAT, .28 kg/h, formulated in anhydrous tetrahydrofuran
[7] = 2 WAT, 11.2 kg/h, formulated in anhydrous tetrahydrofuran
[8] = 4 WAT, 11.2 kg/h, formulated in anhydrous tetrahydrofuran

CCCCOC(=O)CNCP(=O)(O)O[Si](c1ccccc1)(c1ccccc1)C(C)(C)C [Ex. 6, Glycine, N--((([(1,1-Dimethylethyl)Diphenylsilyl]Oxy)Hydroxyphosphinyl)methyl)-Butyl Ester]
Plant Response Index (D) (Morningglory; Table II, 2 WAT, 5.6 kg/h, formulated in anhydrous tetrahydrofuran): 1 (25-49% inhibition) | Plant Response Index (D) (Morningglory; Table II, 2 WAT, 11.2 kg/h): 2 (50-74% inhibition) | Plant Response Index (D) (Morningglory; Table II, 2 WAT, 11.2 kg/h, formulated in anhydrous tetrahydrofuran): 2 (50-74% inhibition) | Plant Response Index (D) (Morningglory; Table II, 4 WAT, 5.6 kg/h): 2 (50-74% inhibition) | Plant Response Index (D) (Morningglory; Table II, 4 WAT, 5.6 kg/h, formulated in anhydrous tetrahydrofuran): 2 (50-74% inhibition) | Plant Response Index (D) (Morningglory; Table II, 4 WAT, 11.2 kg/h): 2 (50-74% inhibition) | Plant Response Index (D) (Morningglory; Table II, 4 WAT, 11.2 kg/h, formulated in anhydrous tetrahydrofuran): 2 (50-74% inhibition) | Plant Response Index (D) (Morningglory; Table III, 2 WAT, 1.1 kg/h): 2 (50-74% inhibition) | Plant Response Index (D) (Morningglory; Table III, 2 WAT, 1.1 kg/h, formulated in anhydrous tetrahydrofuran): 2 (50-74% inhibition) | Plant Response Index (D) (Morningglory; Table III, 2 WAT, 5.6 kg/h): 2 (50-74% inhibition) | Plant Response Index (D) (Morningglory; Table III, 2 WAT, 5.6 kg/h, formulated in anhydrous tetrahydrofuran): 2 (50-74% inhibition) | Plant Response Index (D) (Morningglory; Table III, 2 WAT, .28 kg/h): 1 (25-49% inhibition) | Plant Response Index (D) (Morningglory; Table III, 2 WAT, .28 kg/h, formulated in anhydrous tetrahydrofuran): 1 (25-49% inhibition) | Plant Response Index (D) (Morningglory; Table III, 4 WAT, 1.1 kg/h): 2 (50-74% inhibition) | Plant Response Index (D) (Morningglory; Table III, 4 WAT, 1.1 kg/h, formulated in anhydrous tetrahydrofuran): 2 (50-74% inhibition) | Plant Response Index (D) (Morningglory; Table III, 4 WAT, 5.6 kg/h): 3 (75-99% inhibition) | Plant Response Index (D) (Morningglory; Table III, 4 WAT, 5.6 kg/h, formulated in anhydrous tetrahydrofuran): 2 (50-74% inhibition) | Plant Response Index (D) (Morningglory; Table III, 4 WAT, .28 kg/h, formulated in anhydrous tetrahydrofuran): 1 (25-49% inhibition) | Plant Response Index (S) (Panicum Spp; 2 WAT, 1.1 kg/h): 3 (75-99% inhibition) | Plant Response Index (S) (Panicum Spp; [1]): 2 (50-74% inhibition) | Plant Response Index (S) (Panicum Spp; 2 WAT, 5.6 kg/h): 4 (100% inhibition) | Plant Response Index (S) (Panicum Spp; [2]): 2 (50-74% inhibition) | Plant Response Index (S) (Panicum Spp; 2 WAT, .28 kg/h): 2 (50-74% inhibition) | Plant Response Index (S) (Panicum Spp; [3]): 0 (0-24% inhibition) | Plant Response Index (S) (Panicum Spp; 4 WAT, 1.1 kg/h): 3 (75-99% inhibition) | Plant Response Index (S) (Panicum Spp; [4]): 2 (50-74% inhibition) | Plant Response Index (S) (Panicum Spp; 4 WAT, 5.6 kg/h): 4 (100% inhibition) | Plant Response Index (S) (Panicum Spp; [5]): 3 (75-99% inhibition) | Plant Response Index (S) (Panicum Spp; [6]): 0 (0-24% inhibition) | Plant Response Index (H) (Quackgrass; 2 WAT, 5.6 kg/h): 0 (0-24% inhibition) | Plant Response Index (H) (Quackgrass; [2]): 0 (0-24% inhibition) | Plant Response Index (H) (Quackgrass; 2 WAT, 11.2 kg/h): 1 (25-49% inhibition) | Plant Response Index (H) (Quackgrass; [7]): 0 (0-24% inhibition) | Plant Response Index (H) (Quackgrass; 4 WAT, 5.6 kg/h): 0 (0-24% inhibition) | Plant Response Index (H) (Quackgrass; [5]): 1 (25-49% inhibition) | Plant Response Index (H) (Quackgrass; 4 WAT, 11.2 kg/h): 4 (100% inhibition) | Plant Response Index (H) (Quackgrass; [8]): 0 (0-24% inhibition) | Plant Response Index (M) (Sugar Beet; 2 WAT, 1.1 kg/h): 1 (25-49% inhibition) | Plant Response Index (M) (Sugar Beet; [1]): 1 (25-49% inhibition) | Plant Response Index (M) (Sugar Beet; 2 WAT, 5.6 kg/h): 2 (50-74% inhibition) | Plant Response Index (M) (Sugar Beet; [2]): 1 (25-49% inhibition) | Plant Response Index (M) (Sugar Beet; 2 WAT, .28 kg/h): 0 (0-24% inhibition) | Plant Response Index (M) (Sugar Beet; [3]): 0 (0-24% inhibition) | Plant Response Index (M) (Sugar Beet; 4 WAT, 1.1 kg/h): 1 (25-49% inhibition) | Plant Response Index (M) (Sugar Beet; [4]): 1 (25-49% inhibition) | Plant Response Index (M) (Sugar Beet; 4 WAT, 5.6 kg/h): 3 (75-99% inhibition) | Plant Response Index (M) (Sugar Beet; [5]): 1 (25-49% inhibition) | Plant Response Index (M) (Sugar Beet; [6]): 0 (0-24% inhibition) | Plant Response Index (Q) (Wild Buckwheat; 2 WAT, 1.1 kg/h): 2 (50-74% inhibition) | Plant Response Index (Q) (Wild Buckwheat; [1]): 2 (50-74% inhibition) | Plant Response Index (Q) (Wild Buckwheat; 2 WAT, 5.6 kg/h): 2 (50-74% inhibition) | Plant Response Index (Q) (Wild Buckwheat; [2]): 2 (50-74% inhibition) | Plant Response Index (Q) (Wild Buckwheat; 2 WAT, .28 kg/h): 1 (25-49% inhibition) | Plant Response Index (Q) (Wild Buckwheat; [3]): 1 (25-49% inhibition) | Plant Response Index (Q) (Wild Buckwheat; 4 WAT, 1.1 kg/h): 1 (25-49% inhibition) | Plant Response Index (Q) (Wild Buckwheat; [4]): 2 (50-74% inhibition) | Plant Response Index (Q) (Wild Buckwheat; 4 WAT, 5.6 kg/h): 3 (75-99% inhibition) | Plant Response Index (Q) (Wild Buckwheat; [5]): 2 (50-74% inhibition) | Plant Response Index (Q) (Wild Buckwheat; [6]): 1 (25-49% inhibition) | Plant Response Index (G) (Yellow Nutsedge; 2 WAT, 5.6 kg/h): 0 (0-24% inhibition) | Plant Response Index (G) (Yellow Nutsedge; [2]): 0 (0-24% inhibition) | Plant Response Index (G) (Yellow Nutsedge; 2 WAT, 11.2 kg/h): 1 (25-49% inhibition) | Plant Response Index (G) (Yellow Nutsedge; [7]): 0 (0-24% inhibition) | Plant Response Index (G) (Yellow Nutsedge; 4 WAT, 5.6 kg/h): 1 (25-49% inhibition) | Plant Response Index (G) (Yellow Nutsedge; [5]): 1 (25-49% inhibition) | Plant Response Index (G) (Yellow Nutsedge; 4 WAT, 11.2 kg/h): 2 (50-74% inhibition) | Plant Response Index (G) (Yellow Nutsedge; [8]): 1 (25-49% inhibition)

— patent US4471131A, “Novel silyl esters of N-phosphonomethylglycine” (Monsanto Company, priority 1983, dated 1984)
